Data as given in patent US20220110934A1, “PHARMACEUTICAL COMPOSITION” (Ricoh Company, Ltd., priority 2019, published 2022).

Assay: Dissolution test in physiological saline (Test Example 1, FIG. 11)
Format: physicochemical
Details: 6 mg/mL as nintedanib in 100 mL physiological saline, 20° C., stirring
Procedure: The pharmaceutical composition (i) or the nintedanib ethanesulfonate (obtained from LC laboratories) was added to 100 mL of physiological saline so that the amount of nintedanib would be 6 mg/mL. The resultant mixture was subjected to a dissolution test at a liquid temperature of 20° C. under stirring with a stirrer.
FIG. 11 is a graph presenting the concentrations of nintedanib in the solutions measured over time.

SMILES: COC(=O)c1ccc2c(c1)NC(=O)/C2=C(\Nc1ccc(N(C)C(=O)CN2CCN(C)CC2)cc1)c1ccccc1 [nintedanib ethanesulfonate, Nintedanib ethanesulfonate]
- course of solubility (concentration of nintedanib in solution) over time: solubility decreased over time and sedimentation of insoluble matter was observed
